Data published in patent US10555987B2, “GHRH agonists for the treatment of ischemic disorders” (UNIVERSITY OF MIAMI, priority 2012, dated 2020).
Non-standard residues stand in square brackets, D forms with d. Residues, ends and D or L forms follow the SMILES beside them. *: point of attachment. Desaminotyrosyl = O=C(CCc1ccc(O)cc1)*; Nle = CCCC[C@H](N)C(=O)O; Orn = NCCC[C@H](N)C(=O)O; Abu = CC[C@H](N)C(=O)O; GABA = NCCCC(=O)O

Legend:
GH release [1] = test: In vivo endocrine activity, GH release after subcutaneous administration (Table 9); conditions: rat, subcutaneous (s.c.) injection
Experimental: Subcutaneous Administration. Adult male rats were used and anesthetized with pentobarbital (6 mg/100 g, b.w.), by i.p. injection. […] Blood samples were taken from the jugular vein 5, 15 and/or 30 minutes after the injection. The blood samples were centrifuged, plasma was removed and the GH level was measured byELISA. The results are summarized in terms of potency in Table 9.

GHRH receptor [2] = target: T1, GHRH receptor (Homo sapiens, UniProt Q02643); test: GHRH receptor binding, competition with 125I-labeled JV-1-42, human pituitary membrane homogenates (Table 5); parameters: Normal human pituitaries were purchased from the National Hormone and Peptide Program; tissue National Hormone and Peptide Program (A.F. Parlow, Harbor-UCLA Medical Center, Torrance, Calif.); host or cells: normal human pituitary, membrane fraction
T1 sequence (Q02643 23-423): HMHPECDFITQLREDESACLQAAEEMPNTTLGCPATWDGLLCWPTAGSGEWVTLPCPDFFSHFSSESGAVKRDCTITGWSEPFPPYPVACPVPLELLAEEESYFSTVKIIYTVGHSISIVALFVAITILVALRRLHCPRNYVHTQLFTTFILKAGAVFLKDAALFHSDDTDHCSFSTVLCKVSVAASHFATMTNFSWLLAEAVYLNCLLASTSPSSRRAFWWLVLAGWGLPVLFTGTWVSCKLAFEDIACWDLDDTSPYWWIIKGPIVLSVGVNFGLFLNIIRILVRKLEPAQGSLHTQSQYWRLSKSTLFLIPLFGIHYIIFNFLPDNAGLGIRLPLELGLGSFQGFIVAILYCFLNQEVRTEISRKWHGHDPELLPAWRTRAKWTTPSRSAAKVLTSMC
Experimental: Normal human pituitaries were purchased from the National Hormone and Peptide Program (A.F. Parlow, Los Angeles, County Harbor-UCLA Medical Center, Torrance, Calif.). Briefly, in competitive binding analysis, ^125I-labeled JV-1-42 ([…]) was displaced by GHRH agonists at 10^−6 to 10^−12 M.
The final binding affinities were expressed as IC50 values and were calculated by using the LIGAND PC computerized curve-fitting program of Munson and Rodbard as modified by McPherson.

GHRH receptor [3] = target: T1, GHRH receptor; test: Receptor binding in vitro, 125I-labeled [His1,Nle27]-hGHRH(1-32)NH2, membrane receptors of human anterior pituitary cells (Table 14)
GH release [4] = test: GH releasing potency in vivo, intravenous administration (Example 14, Table 13); parameters: species or system rat; conditions: i.v.
Experimental: Male Sprague-Dawley rats, weighing 200-250 g, were purchased from Charles River Laboratory (Wilmington, Mass.) and used for experiments. All animal procedures were approved by the Veterans Affairs Animal Care and Use Committee and were conducted in accordance with additional institutional guidelines as well. Briefly, groups of 5-6 animals were used in each experiment. The rats were anesthetized with 50 mg/kg of sodium pentobarbital (Nembutal, Lundbeck Inc., Deerfield, Ill.). Twenty min after inducing anesthesia, GHRH(1-29)NH2, JI-38, or new analogs were injected into the animals intravenously (i.v.) or subcutaneously (s.c.). The peptides were dissolved in 0.01 M acetic acid to get 1 μg/μl stock solution, and then diluted with 5% mannitol. Control rats received 5% mannitol only. Blood samples were collected from the jugular vein at selected times and were used for serum preparation. Concentrations of GH in rat sera were determined by ELISA. The relative potencies of tested peptides were calculated using GHRH(1-29)NH2 and JI-38 for comparison, whose potency was defined as 1. The equivalent dosage of GHRH(1-29)NH2 to reach the same level of serum growth hormone release after injection of the specific tested peptide was determined from a GHRH(1-29)NH2 standard curve using Origin 6.0 software. […] Serum GH was determined using the rat Growth Hormone ELISA kit (ALPCO Diagnostics, Mill Valley, Calif.) according to the manufacturer's instruction. Absorbance at 405 nm was measured by a Victor 3 Multi-label Counter (Perkin-Elmer, Waltham, Md.).

GH release [5] = test: GH releasing potency in vivo, subcutaneous administration (Example 14, Table 12); parameters: species or system rat; conditions: s.c.
How it was run: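 Potency is expressed relative to GHRH(1-29)NH2 and JI-38 (each = 1), via equivalent GHRH(1-29)NH2 dose read from a standard curve. Peptides in 5% mannitol given i.v. or s.c. to anaesthetised male Sprague-Dawley rats (200-250 g); serum GH measured by ELISA at selected times.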

GH release [6] = test: In vivo endocrine activity, GH release after intravenous administration (Table 8); conditions: rat, i.v. injection
GHRH receptor [7] = target: T1, GHRH receptor; test: GHRH receptor binding, competition with 125I-labeled JV-1-42, human pituitary membrane homogenates (Table 7); parameters: Normal human pituitaries were purchased from the National Hormone and Peptide Program; tissue National Hormone and Peptide Program (A.F. Parlow, Harbor-UCLA Medical Center, Torrance, Calif.); host or cells: normal human pituitary, membrane fraction; conditions: JI-38 = 1, Table 7
Description: Normal human pituitaries were purchased from the National Hormone and Peptide Program (A.F. Parlow, Los Angeles, County Harbor-UCLA Medical Center, Torrance, Calif.).

Relative affinity (Binding potency) vs GHRH (GHRH receptor [2]; GHRH(1-29) = 1, Table 5): 81.2
Relative affinity (Binding potency) vs JI-38 (GHRH receptor [2]; JI-38 = 1, Table 5): 34.2
Relative affinity (Binding potency) compared to JI-38 (GHRH receptor [3]; JI-38 = 1): 0.83
Relative affinity (Binding potency) compared to hGHRH(1-29) (GHRH receptor [3]; hGHRH(1-29)NH2 = 1): 2.31
Relative affinity (Binding potency) vs JI-38 (GHRH receptor [7]): 5.06
Compound: CCCC[C@H](NC(=O)[C@@H](NC(=O)[C@H](CC(=O)O)NC(=O)[C@H](CCC(N)=O)NC(=O)[C@H](CC(C)C)NC(=O)[C@H](CC(C)C)NC(=O)[C@H](CCCN)NC(=O)[C@H](CCCNC(=N)N)NC(=O)[C@H](C)NC(=O)[C@H](CO)NC(=O)[C@H](CC(C)C)NC(=O)[C@H](CCC(N)=O)NC(=O)[C@H](CC)NC(=O)[C@H](CC(C)C)NC(=O)[C@@H](NC(=O)[C@H](CCCN)NC(=O)[C@H](CCCNC(=N)N)NC(=O)[C@H](Cc1ccc(O)cc1)NC(=O)[C@H](CO)NC(=O)[C@H](CC(N)=O)NC(=O)[C@@H](NC(=O)[C@H](Cc1ccccc1)NC(=O)[C@@H](NC(=O)[C@H](C)NC(=O)[C@H](CC(=O)O)NC(=O)[C@@H](C)NC(=O)CCc1ccc(O)cc1)[C@@H](C)CC)[C@@H](C)O)C(C)C)[C@@H](C)CC)C(=O)N[C@@H](CO)C(=O)N[C@@H](CCCNC(=N)N)C(=O)N[C@@H](CCC(N)=O)C(=O)NCCCC(N)=O [Peptide P-29702, [Dat^1, D-Ala^2, Orn^12, Abu^15, Orn^21, Nle^27, Gln-Gab^30]hGHRH(1-30)NH2] (Desaminotyrosyl-[dA]DAIFTNSYR[Orn]VL[Abu]QLSAR[Orn]LLQDI[Nle]SRQ[GABA]-NH2)
GH releasing potency relative to JI-38 (=1) (GH release [1]; 15 min after): 0.53
GH releasing potency relative to JI-38 (=1) (GH release [1]; 30 min after): 0.73
Relative potency, 5 min (GH release [4]; 5 min, JI-38 = 1): 1.07
Relative potency, 15 min (GH release [4]; 15 min, JI-38 = 1): 1.38
Serum GH level at selected time after injection (ng/ml), 0 min (GH release [4]; dose 1 μg/kg, 0 min, mean ± SEM): 47.7 ± 3.4 ng/mL
Serum GH level at selected time after injection (ng/ml), 5 min (GH release [4]; dose 1 μg/kg, 5 min, mean ± SEM): 578 ± 87.7 ng/mL
Serum GH level at selected time after injection (ng/ml), 15 min (GH release [4]; dose 1 μg/kg, 15 min, mean ± SEM): 273 ± 40.8 ng/mL
Serum GH level at selected time after injection (ng/ml), 0 min (GH release [5]; male rats, dose 3 μg/kg, 0 min, mean ± SEM): 43.7 ± 5^ ng/ml
Serum GH level at selected time after injection (ng/ml), 15 min (GH release [5]; male rats, dose 3 μg/kg, 15 min, mean ± SEM): 103.7 ± 23.1 ng/mL
Serum GH level at selected time after injection (ng/ml), 30 min (GH release [5]; male rats, dose 3 μg/kg, 30 min, mean ± SEM): 85 ± 27.8 ng/mL
Relative potency compared to GHRH(1-29), 15 min (GH release [5]; 15 min): 22.4
Relative potency compared to JI-38, 15 min (GH release [5]; 15 min): 0.35
Relative potency compared to GHRH(1-29), 30 min (GH release [5]; 30 min): 53.5
Relative potency compared to JI-38, 30 min (GH release [5]; 30 min): 0.48
GH releasing potency in vivo relative to JI-38 (=1) (GH release [6]; 5 min after): 0.98
GH releasing potency in vivo relative to JI-38 (=1) (GH release [6]; 15 min after): 0.99
GH releasing potency in vivo relative to JI-38 (=1) (GH release [6]; 30 min after): 1.22
